Laboratory results published in patent US7229630B2, “Stabilized formulations of alpha adrenergic receptor antagonists and the uses thereof” (Novalar Pharmaceuticals, Inc., priority 2002, dated 2007).
Counter-ions that a name gives are not always drawn.

How the values were obtained:
human subjects = assay: Reversal of local anesthesia (polocaine with levonordefrin) by LARA vs saline, bilateral injection; assay type: in vivo; conditions: three subjects, 1.6 ml of 0.05 mg/ml phentolamine mesylate
Procedure: An injection of the physiological saline vehicle (without phentolamine mesylate) served as the control. […] This was followed by injection of the phentolamine mesylate containing local anesthetic reversal agent (LARA) into one side of the oral cavity, and injection of the saline vehicle (control) solution into the opposite side of the oral cavity. The time to reversal of the local anesthetic effect on both sides was then recorded to determine whether there is a difference between the two sides.
The local anesthetic used was 2% polocaine (mepivacaine hydrochloride) with levonordefrin (1:20,000=0.05 mg/ml) (levonordefrin injection, USP) (Astra USA, Inc., Westborough, Mass. 01581). Levonordefrin is a sympathomimetic amine with a pharmacological profile similar to that of epinephrine, but with a lower potency.
Three healthy, male human subjects, age 34–50, volunteered to have local anesthetic injected in the mouth bilaterally under the lip in an easily repeatable location. The exact time of each injection was recorded. The position chosen was above (apical) the prominence of the root of the upper cuspid teeth. This is a common site selected to numb the cuspids, lateral incisors and upper lip. The volume of the local anesthetic injected was 1.7+0.1 ml on each side of the mouth. […]

[1] = Effect of buffer concentration on stability at 60° C. (HPLC, pH); assay type: physicochemical; conditions: for pH: 60° C.
Procedure: The drug is monitored at a detection wavelength of 232 nm.
Tightly sealed glass vials containing the test solutions were placed in an oven at 40° C. or 60° C. All samples were stored in the dark. Aliquots were removed at designated time points for HPLC analysis and pH measurement. All samples were analyzed without dilution.
In conjunction with HPLC analysis, pH was measured. The measurement was performed using the same samples as used for the HPLC analysis. The pH meter was calibrated using pH 4.00 and 7.00 buffer standards prior to each measurement.
Samples were incubated at 60° C. with scheduled testing performed at day 0, 2, 7, and 14. The various buffer concentrations were prepared by diluting the 50 mM buffer with water and re-examining the pH value to determine if the pH 3.5 was constant. Measurements of pH were performed after HPLC analysis of the samples.

[2] = test system: healthy adult volunteer subjects; assay: Dose range study of reversal of local anesthesia after maxillary infiltration; assay type: in vivo, human
Procedure: Four groups of eight healthy adult volunteer subjects were given an infiltration of the lateral incisor using one 1.8 ml cartridge of lidocaine 2% with epinephrine 1:100,000. […] Subjects palpated their upper lip, nose, and teeth every five minutes for the next five hours after injections.

[3] = 0 mM sodium acetate (un-buffered) pH 3.5, 60° C., Day 0
[4] = 0 mM sodium acetate (un-buffered) pH 3.5, 60° C., Day 2
[5] = 0 mM sodium acetate (un-buffered) pH 3.5, 60° C., Day 7
[6] = 0 mM sodium acetate (un-buffered) pH 3.5, 60° C., Day 14
[7] = 5 mM sodium acetate pH 3.5, 60° C., Day 0
[8] = 5 mM sodium acetate pH 3.5, 60° C., Day 2
[9] = 5 mM sodium acetate pH 3.5, 60° C., Day 7
[10] = 5 mM sodium acetate pH 3.5, 60° C., Day 14
[11] = 10 mM sodium acetate pH 3.5, 60° C., Day 0
[12] = 10 mM sodium acetate pH 3.5, 60° C., Day 2
[13] = 10 mM sodium acetate pH 3.5, 60° C., Day 7
[14] = 10 mM sodium acetate pH 3.5, 60° C., Day 14
[15] = 50 mM sodium acetate pH 3.5, 60° C., Day 7
[16] = 50 mM sodium acetate pH 3.5, 60° C., Day 14

Structure (SMILES): Cc1ccc(N(CC2=NCCN2)c2cccc(O)c2)cc1 [Phentolamine Mesylate, phentolamine mesylate]
- side-effects (human subjects): no side-effects of any kind were noted
- Phentolamine Concentration [1, 3]: 90 µg/mL
- Phentolamine Purity [1, 3]: 99 % peak area
- Phentolamine Concentration [1, 4]: 92 µg/mL
- Phentolamine Purity [1, 4]: 99 % peak area
- Phentolamine Concentration [1, 5]: 82 µg/mL
- Phentolamine Purity [1, 5]: 98 % peak area
- Phentolamine Concentration [1, 6]: 77 µg/mL
- Phentolamine Purity [1, 6]: 97 % peak area
- pH ([1]; 0 mM sodium acetate (un-buffered), Day 0): 3.6
- pH ([1]; 0 mM sodium acetate (un-buffered), Day 2): 4.4
- pH ([1]; 0 mM sodium acetate (un-buffered), Day 7): 5.1
- pH ([1]; 0 mM sodium acetate (un-buffered), Day 14): 5.3
- Phentolamine Concentration [1, 7]: 99 µg/mL
- Phentolamine Purity [1, 7]: 99 % peak area
- Phentolamine Concentration [1, 8]: 97 µg/mL
- Phentolamine Purity [1, 8]: 99 % peak area
- Phentolamine Concentration [1, 9]: 94 µg/mL
- Phentolamine Purity [1, 9]: 98 % peak area
- Phentolamine Concentration [1, 10]: 92 µg/mL
- Phentolamine Purity [1, 10]: 98 % peak area
- pH ([1]; 5 mM sodium acetate, Day 0): 3.5
- pH ([1]; 5 mM sodium acetate, Day 2): 3.8
- pH ([1]; 5 mM sodium acetate, Day 7): 3.8
- pH ([1]; 5 mM sodium acetate, Day 14): 3.8
- Phentolamine Concentration [1, 11]: 100 µg/mL
- Phentolamine Purity [1, 11]: 99 % peak area
- Phentolamine Concentration [1, 12]: 97 µg/mL
- Phentolamine Purity [1, 12]: 99 % peak area
- Phentolamine Concentration [1, 13]: 96 µg/mL
- Phentolamine Purity [1, 13]: 98 % peak area
- Phentolamine Concentration [1, 14]: 92 µg/mL
- Phentolamine Purity [1, 14]: 98 % peak area
- pH ([1]; 10 mM sodium acetate, Day 0): 3.5
- pH ([1]; 10 mM sodium acetate, Day 2): 3.7
- pH ([1]; 10 mM sodium acetate, Day 7): 3.8
- pH ([1]; 10 mM sodium acetate, Day 14): 3.7
- Phentolamine Purity ([1]; 50 mM sodium acetate pH 3.5, 60° C., Day 0): 98 % peak area
- Phentolamine Purity ([1]; 50 mM sodium acetate pH 3.5, 60° C., Day 2): 98 % peak area
- Phentolamine Concentration [1, 15]: 99 µg/mL
- Phentolamine Purity [1, 15]: 98 % peak area
- Phentolamine Concentration [1, 16]: 96 µg/mL
- Phentolamine Purity [1, 16]: 96 % peak area
- pH ([1]; 50 mM sodium acetate, Day 0): 3.5
- pH ([1]; 50 mM sodium acetate, Day 2): 3.6
- pH ([1]; 50 mM sodium acetate, Day 7): 3.6
- pH ([1]; 50 mM sodium acetate, Day 14): 3.6
- rate of degradation vs un-buffered control (0 mM) ([1]; 5, 10 and 50 mM sodium acetate, pH 3.5, 60° C.): comparable and was an improvement over the un-buffered control
- electrocardiogram ([2]; 0.02 mg, 0.08 mg, 0.4 mg in 1.8 ml): no abnormalities
- Adverse events ([2]; 0.02 mg, 0.08 mg, 0.4 mg in 1.8 ml, vs placebo): few and no differences were noted between the active and placebo groups
- duration of anesthesia ([2]; all doses tested (0.02 mg, 0.08 mg, 0.4 mg in 1.8 ml), 40 minutes after lidocaine 2% with epinephrine 1:100,000, vs saline, each measured tissue): significantly (p<0.01) reduced
